According to ChEMBL document CHEMBL4033641, “Design, synthesis and anticancer potential of NSC-319745 hydroxamic acid derivatives as DNMT and HDAC inhibitors” (Eur J Med Chem, 2017):
Activity calls are given as the source filed them. No cut-off for these calls is given here.

Key:
[1] = test system: U-937; test: Induction of apoptosis in human U937 cells assessed as necrotic cells at 2.5 uM after 48 hrs by Annexin V-FITC/PI staining based flow cytometry (reference value: 0%); type: functional
[2] = test system: Salmonella typhimurium; test: Genotoxicity in Salmonella typhimurium TA97 at 50 times IC50 by Ames test; type: toxicity; conditions: salmonella enterica subsp. enterica serovar typhimurium
[3] = test system: U-937; test: Induction of apoptosis in human U937 cells assessed as cell death after 48 hrs by Annexin V-FITC/PI staining based flow cytometry; type: functional
[4] = biological target: DNA (cytosine-5)-methyltransferase 1 (Homo sapiens) (UniProt P26358); test: Inhibition of DNMT1 (unknown origin) at 100 uM using poly(dI-dC).poly(dI-dC) as substrate preincubated for 15 mins followed by substrate/[3H]-SAM addition measured after 120 mins by liquid scintillation counting analysis
DNA (cytosine-5)-methyltransferase 1 (Homo sapiens), sequence (P26358 whole entry): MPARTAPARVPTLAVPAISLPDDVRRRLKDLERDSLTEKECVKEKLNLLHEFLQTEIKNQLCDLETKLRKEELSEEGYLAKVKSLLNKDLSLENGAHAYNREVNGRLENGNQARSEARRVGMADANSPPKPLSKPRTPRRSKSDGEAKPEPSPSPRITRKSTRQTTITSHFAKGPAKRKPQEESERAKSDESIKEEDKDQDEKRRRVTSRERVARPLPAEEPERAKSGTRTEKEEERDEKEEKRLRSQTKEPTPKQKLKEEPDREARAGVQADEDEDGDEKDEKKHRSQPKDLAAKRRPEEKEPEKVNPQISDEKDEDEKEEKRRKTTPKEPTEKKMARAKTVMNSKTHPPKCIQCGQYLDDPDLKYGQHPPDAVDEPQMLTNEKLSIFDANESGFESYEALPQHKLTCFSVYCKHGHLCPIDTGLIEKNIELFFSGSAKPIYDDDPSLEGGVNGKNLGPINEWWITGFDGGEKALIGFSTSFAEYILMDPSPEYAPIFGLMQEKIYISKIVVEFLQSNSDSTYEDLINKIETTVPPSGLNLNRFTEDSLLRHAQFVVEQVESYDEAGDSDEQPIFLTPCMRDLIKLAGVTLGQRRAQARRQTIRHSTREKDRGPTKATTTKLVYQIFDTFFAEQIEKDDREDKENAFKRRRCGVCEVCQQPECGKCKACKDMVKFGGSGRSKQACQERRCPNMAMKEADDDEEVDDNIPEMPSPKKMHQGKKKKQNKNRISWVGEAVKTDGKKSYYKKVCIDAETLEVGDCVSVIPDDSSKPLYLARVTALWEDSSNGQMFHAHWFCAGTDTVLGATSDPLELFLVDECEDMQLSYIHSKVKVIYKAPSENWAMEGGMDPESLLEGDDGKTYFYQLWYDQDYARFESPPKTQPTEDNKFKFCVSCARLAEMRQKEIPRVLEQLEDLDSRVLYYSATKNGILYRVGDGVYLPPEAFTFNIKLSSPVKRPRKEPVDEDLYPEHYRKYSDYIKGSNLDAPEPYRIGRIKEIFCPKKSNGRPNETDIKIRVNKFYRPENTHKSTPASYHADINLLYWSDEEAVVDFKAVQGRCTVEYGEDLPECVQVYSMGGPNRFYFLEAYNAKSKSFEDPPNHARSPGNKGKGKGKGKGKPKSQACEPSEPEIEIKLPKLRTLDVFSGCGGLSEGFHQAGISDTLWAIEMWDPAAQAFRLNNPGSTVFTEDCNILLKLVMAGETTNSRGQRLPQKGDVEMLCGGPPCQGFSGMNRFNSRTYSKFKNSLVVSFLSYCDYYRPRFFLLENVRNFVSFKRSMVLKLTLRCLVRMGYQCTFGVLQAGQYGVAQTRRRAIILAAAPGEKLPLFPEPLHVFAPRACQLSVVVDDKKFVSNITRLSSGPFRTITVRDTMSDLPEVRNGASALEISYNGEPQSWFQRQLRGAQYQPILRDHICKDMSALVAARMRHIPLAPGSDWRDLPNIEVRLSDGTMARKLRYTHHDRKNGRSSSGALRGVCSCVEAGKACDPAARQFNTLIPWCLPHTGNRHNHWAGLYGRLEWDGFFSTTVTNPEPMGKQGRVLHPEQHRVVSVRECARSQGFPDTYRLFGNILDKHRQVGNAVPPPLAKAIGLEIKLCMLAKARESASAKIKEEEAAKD

[5] = test system: U-937; test: Induction of apoptosis in human U937 cells assessed as viable cells at 2.5 uM after 48 hrs by Annexin V-FITC/PI staining based flow cytometry (reference value: 99.4%); type: functional; conditions: U-937, 48 h, read-out: Activity
[6] = species: Homo sapiens; test: Inhibition of HDAC in human U937 cells assessed as induction of histone H4K8 acetylation after 12 hrs by Western blot analysis; type: cell-based
[7] = test system: U-937; test: Induction of apoptosis in human U937 cells assessed as late apoptotic cells at 5 uM after 48 hrs by Annexin V-FITC/PI staining based flow cytometry (reference value: 0.438%); type: functional
[8] = test system: U-937; test: Induction of apoptosis in human U937 cells assessed as early apoptotic cells at 5 uM after 48 hrs by Annexin V-FITC/PI staining based flow cytometry (reference value: 0.162%); type: functional
[9] = biological target: T1, Protein deacetylase HDAC6 (Homo sapiens, UniProt Q9UBN7); test: Inhibition of HDAC6 (unknown origin) preincubated for 15 mins followed by substrate addition measured after 60 mins by fluorescence assay
T1 sequence (Q9UBN7 whole entry): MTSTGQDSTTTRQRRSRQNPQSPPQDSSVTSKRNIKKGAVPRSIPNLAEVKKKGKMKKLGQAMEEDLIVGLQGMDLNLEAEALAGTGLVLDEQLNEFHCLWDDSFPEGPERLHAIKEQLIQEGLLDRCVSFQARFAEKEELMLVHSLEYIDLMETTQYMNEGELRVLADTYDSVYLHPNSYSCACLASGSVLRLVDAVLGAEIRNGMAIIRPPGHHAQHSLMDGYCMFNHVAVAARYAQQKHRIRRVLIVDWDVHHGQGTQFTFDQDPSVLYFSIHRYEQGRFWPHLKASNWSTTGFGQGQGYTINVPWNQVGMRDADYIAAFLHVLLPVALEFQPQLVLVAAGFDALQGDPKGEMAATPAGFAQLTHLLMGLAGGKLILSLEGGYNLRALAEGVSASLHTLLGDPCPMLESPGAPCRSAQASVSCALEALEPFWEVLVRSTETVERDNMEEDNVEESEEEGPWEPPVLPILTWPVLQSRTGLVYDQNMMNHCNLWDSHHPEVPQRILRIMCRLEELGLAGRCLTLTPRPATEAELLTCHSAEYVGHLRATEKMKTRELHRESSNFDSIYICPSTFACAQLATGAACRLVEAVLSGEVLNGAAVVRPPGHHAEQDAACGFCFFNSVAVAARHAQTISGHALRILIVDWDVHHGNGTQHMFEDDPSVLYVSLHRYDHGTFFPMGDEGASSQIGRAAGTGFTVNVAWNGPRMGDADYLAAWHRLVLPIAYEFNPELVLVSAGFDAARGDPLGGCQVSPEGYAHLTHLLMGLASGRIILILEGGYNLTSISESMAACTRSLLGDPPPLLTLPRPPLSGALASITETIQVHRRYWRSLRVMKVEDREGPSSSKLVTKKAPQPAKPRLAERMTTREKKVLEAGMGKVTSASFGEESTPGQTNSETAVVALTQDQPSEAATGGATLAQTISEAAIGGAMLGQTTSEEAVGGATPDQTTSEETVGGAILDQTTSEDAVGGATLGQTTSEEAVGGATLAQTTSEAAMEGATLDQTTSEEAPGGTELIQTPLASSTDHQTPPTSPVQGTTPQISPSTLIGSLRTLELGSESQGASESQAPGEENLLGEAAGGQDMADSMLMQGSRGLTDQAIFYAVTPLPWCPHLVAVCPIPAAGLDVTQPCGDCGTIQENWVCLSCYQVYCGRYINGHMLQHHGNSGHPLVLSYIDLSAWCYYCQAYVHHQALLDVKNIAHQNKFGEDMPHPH

[10] = test system: K562; test: Antiproliferative activity against human K562 cells after 72 hrs by MTT assay; type: functional, cell-based; conditions: K562, 72 h
[11] = species: Homo sapiens; test: Inhibition of HDAC in human U937 cells assessed as induction of histone H3K9 acetylation after 12 hrs by Western blot analysis; type: cell-based
[12] = test system: U-937; test: Induction of apoptosis in human U937 cells assessed as necrotic cells at 10 uM after 48 hrs by Annexin V-FITC/PI staining based flow cytometry (reference value: 0%); type: functional
[13] = test system: Salmonella typhimurium; test: Genotoxicity in Salmonella typhimurium TA1535 at 50 times IC50 by Ames test; type: toxicity; conditions: salmonella enterica subsp. enterica serovar typhimurium
[14] = test system: U-937; test: Induction of apoptosis in human U937 cells assessed as late apoptotic cells at 2.5 uM after 48 hrs by Annexin V-FITC/PI staining based flow cytometry (reference value: 0.438%); type: functional
[15] = test system: Salmonella typhimurium; test: Genotoxicity in Salmonella typhimurium TA102 at 50 times IC50 by Ames test; type: toxicity; conditions: salmonella enterica subsp. enterica serovar typhimurium
[16] = biological target: Histone deacetylase 1 (Homo sapiens, UniProt Q13547); test: Inhibition of HDAC1 (unknown origin) preincubated for 15 mins followed by substrate addition measured after 60 mins by fluorescence assay
Histone deacetylase 1, sequence (Q13547 whole entry): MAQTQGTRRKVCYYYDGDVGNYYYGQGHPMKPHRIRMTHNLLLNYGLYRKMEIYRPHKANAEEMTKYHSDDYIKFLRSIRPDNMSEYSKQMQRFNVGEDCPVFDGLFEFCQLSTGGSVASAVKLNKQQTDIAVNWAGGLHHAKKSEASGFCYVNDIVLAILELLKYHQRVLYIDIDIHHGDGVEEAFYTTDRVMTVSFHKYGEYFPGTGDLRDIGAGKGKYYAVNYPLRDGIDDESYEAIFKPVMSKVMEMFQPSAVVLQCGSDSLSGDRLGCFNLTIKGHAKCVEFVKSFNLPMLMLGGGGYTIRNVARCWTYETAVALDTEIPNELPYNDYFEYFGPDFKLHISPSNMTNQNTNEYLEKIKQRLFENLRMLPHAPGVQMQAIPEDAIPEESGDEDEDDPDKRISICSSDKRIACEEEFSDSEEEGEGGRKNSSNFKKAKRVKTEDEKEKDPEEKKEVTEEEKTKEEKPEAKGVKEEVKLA

[17] = test system: U-937; test: Induction of apoptosis in human U937 cells assessed as early apoptotic cells at 10 uM after 48 hrs by Annexin V-FITC/PI staining based flow cytometry (reference value: 0.162%); type: functional
[18] = test system: U-937; test: Induction of apoptosis in human U937 cells assessed as necrotic cells at 5 uM after 48 hrs by Annexin V-FITC/PI staining based flow cytometry (reference value: 0%); type: functional
[19] = biological target: DNA (cytosine-5)-methyltransferase 1 (Homo sapiens) (UniProt P26358); test: Inhibition of DNMT1 in human U937 cells assessed as increase in P16INK4A expression level at 1 to 5 uM after 36 hrs by Western blot analysis; type: cell-based
[20] = test system: U-937; test: Induction of apoptosis in human U937 cells assessed as viable cells at 10 uM after 48 hrs by Annexin V-FITC/PI staining based flow cytometry (reference value: 99.4%); type: functional; conditions: U-937, 48 h, read-out: Activity
[21] = biological target: DNMT3B-DNMT3L complex (Homo sapiens) (UniProt Q9UBC3+Q9UJW3); test: Inhibition of DNMT3B/3L (unknown origin) at 100 uM using biotinylated DNA oligonucleotides as substrate preincubated for 15 mins followed by substrate/[3H]-SAM addition measured after 4 hrs by liquid scintillation counting analysis; type: protein-complex assay
DNMT3B-DNMT3L complex (Homo sapiens), sequence (Q9UJW3 whole entry, looked up, other chains not shown): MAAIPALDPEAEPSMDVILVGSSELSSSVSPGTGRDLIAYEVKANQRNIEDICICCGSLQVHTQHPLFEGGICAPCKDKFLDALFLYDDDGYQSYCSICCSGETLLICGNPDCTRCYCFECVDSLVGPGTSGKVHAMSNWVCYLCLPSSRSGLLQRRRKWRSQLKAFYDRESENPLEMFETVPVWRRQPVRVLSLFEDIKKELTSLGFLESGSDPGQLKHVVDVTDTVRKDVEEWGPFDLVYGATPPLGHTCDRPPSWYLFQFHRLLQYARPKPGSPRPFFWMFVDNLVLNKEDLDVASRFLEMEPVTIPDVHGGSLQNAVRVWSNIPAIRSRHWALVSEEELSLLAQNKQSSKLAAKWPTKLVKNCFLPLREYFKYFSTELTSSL

[22] = test system: U-937; test: Antiproliferative activity against human U937 cells after 72 hrs by MTT assay; type: functional, cell-based; conditions: U-937, 72 h
[23] = test system: U-937; test: Induction of apoptosis in human U937 cells assessed as increase in cleaved PARP expression at 1 to 5 uM after 36 hrs by Western blot analysis; type: functional, cell-based
[24] = test system: U-937; test: Induction of apoptosis in human U937 cells assessed as increase in cleaved caspase-3 level at 1 to 5 uM after 36 hrs by Western blot analysis; type: functional, cell-based
[25] = species: Homo sapiens; test: Inhibition of DNMT in human U937 cells assessed as induction of P16 CpG islands demethylation at 1 to 2.5 uM after 36 hrs by PCR analysis; type: cell-based
[26] = test system: U-937; test: Induction of apoptosis in human U937 cells assessed as increase in PARP expression at 1 to 5 uM after 36 hrs by Western blot analysis; type: functional, cell-based
[27] = test system: U-937; test: Induction of apoptosis in human U937 cells assessed as late apoptotic cells at 10 uM after 48 hrs by Annexin V-FITC/PI staining based flow cytometry (reference value: 0.438%); type: functional
[28] = test system: U-937; test: Induction of apoptosis in human U937 cells assessed as viable cells at 5 uM after 48 hrs by Annexin V-FITC/PI staining based flow cytometry (reference value: 99.4%); type: functional; conditions: U-937, 48 h, read-out: Activity
[29] = test system: U-937; test: Induction of apoptosis in human U937 cells assessed as early apoptotic cells at 2.5 uM after 48 hrs by Annexin V-FITC/PI staining based flow cytometry (reference value: 0.162%); type: functional
[30] = test system: Salmonella typhimurium; test: Genotoxicity in Salmonella typhimurium TA98 at 50 times IC50 by Ames test; type: toxicity; conditions: salmonella enterica subsp. enterica serovar typhimurium
[31] = biological target: DNMT3A2/3L complex (Homo sapiens) (UniProt Q9Y6K1+Q9UJW3); test: Inhibition of DNMT3A/3L (unknown origin) at 100 uM using biotinylated DNA oligonucleotides as substrate preincubated for 15 mins followed by substrate/[3H]-SAM addition measured after 4 hrs by liquid scintillation counting analysis; type: protein-complex assay
DNMT3A2/3L complex (Homo sapiens), sequence (Q9UJW3 whole entry, looked up): as the sequence (Q9UJW3 whole entry, looked up, other chains not shown) above
DNMT3A2/3L complex (Homo sapiens), sequence (Q9Y6K1 whole entry, looked up): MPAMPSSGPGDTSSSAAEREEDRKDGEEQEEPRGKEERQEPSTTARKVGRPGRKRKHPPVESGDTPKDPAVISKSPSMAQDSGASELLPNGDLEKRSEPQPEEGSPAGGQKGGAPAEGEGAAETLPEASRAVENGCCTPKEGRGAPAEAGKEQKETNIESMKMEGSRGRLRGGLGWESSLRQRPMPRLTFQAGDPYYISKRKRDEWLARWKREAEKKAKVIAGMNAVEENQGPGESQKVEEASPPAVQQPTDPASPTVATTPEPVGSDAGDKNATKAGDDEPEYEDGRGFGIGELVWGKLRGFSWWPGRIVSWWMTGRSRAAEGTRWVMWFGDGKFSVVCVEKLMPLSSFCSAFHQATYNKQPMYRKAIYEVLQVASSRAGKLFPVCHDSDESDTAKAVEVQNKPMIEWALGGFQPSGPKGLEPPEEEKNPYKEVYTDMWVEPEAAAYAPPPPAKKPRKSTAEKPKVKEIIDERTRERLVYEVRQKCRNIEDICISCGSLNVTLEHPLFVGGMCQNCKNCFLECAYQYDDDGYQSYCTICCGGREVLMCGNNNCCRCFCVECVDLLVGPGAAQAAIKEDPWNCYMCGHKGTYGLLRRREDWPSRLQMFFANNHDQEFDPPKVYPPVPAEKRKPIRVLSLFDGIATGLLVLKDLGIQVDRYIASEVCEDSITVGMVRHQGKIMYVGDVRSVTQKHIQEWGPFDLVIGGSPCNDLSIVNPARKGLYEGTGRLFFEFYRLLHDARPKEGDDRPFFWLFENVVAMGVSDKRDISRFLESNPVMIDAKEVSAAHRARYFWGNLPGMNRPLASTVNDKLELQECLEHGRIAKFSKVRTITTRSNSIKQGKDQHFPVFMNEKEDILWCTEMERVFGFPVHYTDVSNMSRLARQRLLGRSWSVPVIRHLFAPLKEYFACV

- inhibition [4]: 69.9 to 70%
- IC50 [9]: 0.0174 µM
- IC50 [10]: 2.85 µM
- IC50 [16]: 0.0568 µM
- inhibition [19]: Active
- inhibition [21]: 48 to 48.5%
- IC50 [22]: 1.06 µM
- inhibition [31]: 23 to 23.4%
Structure (SMILES): O=C(/C=C/c1ccc(CCNC(=O)c2cc(C(F)(F)F)ccc2Cl)cc1)NO
- Activity [1]: 0.452%
- Activity [2]: Non-Toxic
- Activity [3]: Dose-dependent effect
- viability at 2.5 µM [5]: 56%
- inhibition [6]: Dose-dependent effect
- Activity [7]: 50.7%
- Activity [8]: 48.2%
- inhibition [11]: Dose-dependent effect
- Activity [12]: 0.846%
- Activity [13]: Non-Toxic
- Activity [14]: 30.7%
- Activity [15]: Non-Toxic
- Activity [17]: 30.1%
- Activity [18]: 0.384%
- viability at 10 µM [20]: 0.784%
- Activity [23]: Active
- Activity [24]: Active
- inhibition [25]: Active
- Activity [26]: Active
- Activity [27]: 68.3%
- viability at 5 µM [28]: 0.725%
- Activity [29]: 12.9%
- Activity [30]: Non-Toxic
